{
  "source": "paper PMC4827351",
  "about": "(Chemical Science, 2015)",
  "key": {"E. coli ATCC 25922": {"system": "E. coli ATCC 25922", "test": "SEM analysis of bacterial agglutination", "type": "cell-based, Escherichia coli", "details": "3 µM proHD6 treated with trypsin before incubation (trypsin inactivated with APMSF), 30 min, 50 mM Tris-maleate pH 6.4", "experimental": "Fig. 3 TEM analysis of HD6 self-assembly and SEM analysis of bacterial agglutination. Top row: transmission electron micrographs of 10 mM sodium phosphate pH 7.4 (control), 0.4 μM trypsin (control), 20 μM proHD6 in the absence and presence of 0.4 μM trypsin, and 20 μM HD6. All the samples were incubated at room temperature for 1 h. Scale bar = 100 nm. TEM images obtained using 10 mM Tris-maleate pH 6.4 are presented in Fig. S7. ^† Middle row: scanning electron micrographs of E. coli ATCC 25922 treated with 50 mM Tris-maleate pH 6.4 (control), 0.4 μM APMSF-inactivated trypsin (control), 3 μM proHD6, 3 μM trypsin-cleaved proHD6, or 3 μM HD6. Trypsin-cleaved proHD6 was prepared prior to incubation with the bacteria and the residual enzymatic activity was inhibited by APMSF (Experimental section). Following a 30 min incubation, the bacterial suspensions were centrifuged, fixed, and analyzed by SEM. Scale bar = 20 μm. Bottom row: SEM of L. monocytogenes ATCC19115 treated under the same conditions as in the middle row. Scale bar = 20 μm.\nBacteria were grown aerobically at 37 °C overnight in LB media. The next morning the strains were subcultured and grown to mid-logarithmic phase in LB media. […]"}, "[1]": {"test": "Sedimentation velocity analytical ultracentrifugation", "type": "physicochemical", "details": "SV-AUC; for s20,w: 42 000 rpm, 20 °C, A280, DCDT+; for MW (best-fit molecular mass) / D: DCDT+", "experimental": "The experiments were set up as previously reported.[15] In one set of experiments, 10× concentrated proHD6 solutions in Milli-Q water (≈40 μL) were transferred to microcentrifuge tubes and lyophilized to dryness. […] The pH of each solution was measured to confirm that it remained unchanged. The samples were centrifuged at 42 000 rpm and 20 °C until sedimentation was complete. The absorption wavelength for optical detection was 280 nm. All SV experiments were conducted with at least two independently prepared and purified samples of each peptide and in at least two independent trials.\nAdditional SV experiments were conducted to evaluate the effect of buffer components on the sedimentation of proHD6. In all cases, the proHD6 samples (400 μL) were prepared as described above except that proHD6 was dissolved in 10 mM Tris–HCl or HEPES pH 7.4 to obtain a final peptide concentration of 50 μM.\nThe experimental sedimentation coefficients were calculated by fitting the time derivative of the sedimentation velocity (–dc/dt) data using DCDT+.[29],[54] The –dc/dt distribution was generated from 22 to 28 scans with a peak broadening limit of 40 kDa by using DCDT+.\nTable S4. Calculated sedimentation coefficients of proHD6.a\nConcentration Buffer pH s20,w (S) D (F) MW (kDa) Partial Specific\n(µM) (10 mM) Volume (mL/g) […]\na All samples were prepared in the indicated buffer; NaP is sodium phosphate. The temperature was 20 °C. Data were obtained by analysis with the dc/dt method implemented in DCDT+ using 22- 28 scans with 40 kDa diffusion broadening maximum. Sedimentation coefficients are s20,w values, adjusted with a solvent density (ρ) of 0.99967 g/mL and a solvent viscosity (η) of 1.0061 cP. Viscosity units are in centipoise (cP) (1 poise = 1 gŸ[…]cm-1Ÿ[…]s-1). Sedimentation coefficients are in svedbergs (1 svedberg = 100 fs = 1 x 10-13 s). Diffusion coefficients correspond to the best-fit molecular mass in Fick units (1 Fick = 1 x 10-7 cm2/s). HEPES has a solvent density (ρ) of 0.99901 g/mL and a solvent viscosity (η) of 1.0104 cP at 20 °C. Tris-HCl has a solvent density (ρ) of 0.99851 g/mL and a solvent viscosity (η) of 1.0037 cP at 20 °C. The solvent densities, viscosities, and the partial specific volume values of proHD6 monomer and dimer were […]"}, "[2]": {"details": "proHD6 30 µM, 10 mM NaP pH 7.4, first 30 µM line"}, "[3]": {"details": "proHD6 30 µM, 10 mM NaP pH 7.4, second 30 µM line"}, "[4]": {"details": "proHD6 30 µM, 10 mM NaP pH 7.4, third 30 µM line"}, "[5]": {"details": "proHD6 50 µM, 10 mM HEPES pH 7.4"}, "[6]": {"details": "proHD6 50 µM, 10 mM NaP pH 7.4, first 50 µM line"}, "[7]": {"details": "proHD6 50 µM, 10 mM NaP pH 7.4, second 50 µM line"}, "[8]": {"details": "proHD6 50 µM, 10 mM Tris-HCl pH 7.4"}, "[9]": {"details": "proHD6 100 µM, 10 mM NaP pH 7.4"}, "[10]": {"details": "proHD6 120 µM, 10 mM NaP pH 7.4"}, "[11]": {"details": "proHD6 140 µM, 10 mM NaP pH 7.4"}},
  "data": [
    {"sequence": "EPLQAEDDPLQAKAYEADAQEQRGANDQDFAVSFAEDASSSLRALGSTRAFTCHCRRSCYSTEYSYGTCTVMGINHRFCCL (disulfide (positions not given here)) [proHD6, 81-residue propeptide of human α-defensin 6, recombinant, from His6-SUMO-proHD6]", "values": [
      {"measurement": "bacterial agglutination (SEM), trypsin-cleaved", "setting": "E. coli ATCC 25922", "result": "entangled and agglutinated E. coli"},
      {"measurement": "s20,w", "setting": "[1]; [2]", "result": 1.727, "unit": "S"},
      {"measurement": "s20,w", "setting": "[1]; [3]", "result": 1.798, "unit": "S"},
      {"measurement": "s20,w", "setting": "[1]; [4]", "result": 1.733, "unit": "S"},
      {"measurement": "s20,w", "setting": "[1]; [5]", "result": 1.763, "unit": "S"},
      {"measurement": "s20,w", "setting": "[1]; [6]", "result": 1.844, "unit": "S"},
      {"measurement": "s20,w", "setting": "[1]; [7]", "result": 1.865, "unit": "S"},
      {"measurement": "s20,w", "setting": "[1]; [8]", "result": 1.783, "unit": "S"},
      {"measurement": "s20,w", "setting": "[1]; [9]", "result": 1.843, "unit": "S"},
      {"measurement": "s20,w", "setting": "[1]; [10]", "result": 1.769, "unit": "S"},
      {"measurement": "s20,w", "setting": "[1]; [11]", "result": 1.751, "unit": "S"},
      {"measurement": "MW (best-fit molecular mass)", "setting": "[1]; [2]", "result": 14.3, "unit": "kDa"},
      {"measurement": "D", "setting": "[1]; proHD6 30 µM, 10 mM NaP pH 7.4, first 30 µM line, 1 Fick = 1 x 10-7 cm2/s", "result": 9.83, "unit": "F"},
      {"measurement": "D", "setting": "[1]; [3]", "result": 11.5, "unit": "F"},
      {"measurement": "MW (best-fit molecular mass)", "setting": "[1]; [3]", "result": 12.8, "unit": "kDa"},
      {"measurement": "D", "setting": "[1]; [4]", "result": 9.73, "unit": "F"},
      {"measurement": "MW (best-fit molecular mass)", "setting": "[1]; [4]", "result": 14.5, "unit": "kDa"},
      {"measurement": "D", "setting": "[1]; [5]", "result": 9.94, "unit": "F"},
      {"measurement": "MW (best-fit molecular mass)", "setting": "[1]; [5]", "result": 14.4, "unit": "kDa"},
      {"measurement": "D", "setting": "[1]; [6]", "result": 10.4, "unit": "F"},
      {"measurement": "MW (best-fit molecular mass)", "setting": "[1]; [6]", "result": 14.4, "unit": "kDa"},
      {"measurement": "D", "setting": "[1]; [7]", "result": 10.3, "unit": "F"},
      {"measurement": "MW (best-fit molecular mass)", "setting": "[1]; [7]", "result": 14.8, "unit": "kDa"},
      {"measurement": "D", "setting": "[1]; [8]", "result": 8.97, "unit": "F"},
      {"measurement": "MW (best-fit molecular mass)", "setting": "[1]; [8]", "result": 16.1, "unit": "kDa"},
      {"measurement": "D", "setting": "[1]; [9]", "result": 13.8, "unit": "F"},
      {"measurement": "MW (best-fit molecular mass)", "setting": "[1]; [9]", "result": 10.9, "unit": "kDa"},
      {"measurement": "D", "setting": "[1]; [10]", "result": 9.16, "unit": "F"},
      {"measurement": "MW (best-fit molecular mass)", "setting": "[1]; [10]", "result": 15.7, "unit": "kDa"},
      {"measurement": "D", "setting": "[1]; [11]", "result": 9.47, "unit": "F"},
      {"measurement": "MW (best-fit molecular mass)", "setting": "[1]; [11]", "result": 15.0, "unit": "kDa"}
    ]}
  ]
}
